# Measured values as given in US5342974A, “Halogenated anthraquinone and their use as near infrared rays absorbing optical filters” (Mitsui Toatsu Chemicals, Incorporated, priority 1987, dated 1994).
# Experiment: Transmittance-versus-wavelength curve in chloroform (FIG. 1), judged as a near infrared filter
# Type: physicochemical
# Conditions: curve 3 of FIG. 1
# Source text: FIG. 1 is a graph illustrating transmittance to wavelength of a solution in chloroform of the compounds of Examples 1 and 3 and Comparative Example 1, in which carves 1, 2 and 3 are the absorption curves of the compounds of Example 1, Example 3 and Comparative Example i respectively.
# In the anthraquinone of present invention, at least one of four anilido benzene rings is substituted by a halogen atom such as chlorine, fluorine and bromine, which preferably is in the p-position. The anthraquinone bearing a halogen atom realizes a wave shape of the light absorption of the absorption curves of these compounds render them very suitable for near infrared rays absorbing filters. That is, the anthraquinone bearing a halogen atom can mostly absorb the light in the wavelength range of 700 to 800 nm and realize the transmittance curve which is steeper slope in vicinity of 800 nm than one of other anthraquinone bearing no halogen atom.
# In general, laser beams used for the near infrared rays absorbing filters have a wavelength of 830 nm or more, but the wavelength depends upon use applications. In the examples described following, the most usual wavelength of about 860 nm was used to measure the transmittance of compounds represented by the formula (I), and the estimation was made by comparing absorption wave shapes. […]
row,transmission of the product in a 800-830 wavelength range,Structure (SMILES)
1,poor,"Cc1ccc(Nc2ccc(Nc3ccc(C)cc3)c3c2C(=O)c2c(Nc4ccc(C)cc4)ccc(Nc4ccc(C)cc4)c2C3=O)cc1 [Comparative Example 1, 1,4,5,8-tetrakis(p-methylanilido)anthraquinone, reference compound]"

# Experiment: Transmittance at 860 nm of the product dissolved in chloroform
# Type: physicochemical
# Conditions: 860 nm; chloroform; product/chloroform=4 mg/100 ml
# Source text: In order to use colorants consisted in such optical filters, fairly high purity is required. However conventional near infrared rays absorbing colorants have low purity and inadequate absorption characteristics and thus can scarecely be used. Particularly in case of a 1,4,5,8-tetraanilidoanthraquinone, the allowable limit of its transmittance in the vicinity of 860 nm is at a level of about 95 to about 96% (a concentration of the dissolved colorant at the time of the transmittance measurement is 4 mg per 100 ml of chloroform). If its transmittance is below this level, the transmission of semiconductor laser beams is hindered noticeably, and therefore it is difficult to use such a colorant as a near infrared rays absorbing filter for measuring equipment and the like where particularly high accuracy is required.
# In general, laser beams used for the near infrared rays absorbing filters have a wavelength of 830 nm or more, but the wavelength depends upon use applications. In the examples described following, the most usual wavelength of about 860 nm was used to measure the transmittance of compounds represented by the formula (I), and the estimation was made by comparing absorption wave shapes.
# A mixture of 10.87 parts of 99%-purity 1,4,5,8-tetrachloroanthraquinone recrystallized from chlorobenzene, 27.2 parts of p-toluidine, 31.3 parts of p-chloroaniline, 13.4 parts of potasssium acetate, 1.24 parts of copper sulfate and 3.41 parts of benzyl alcohol was heated 130° C. under a nitrogen gas flow and the reaction mixture was then maintained at this temperature for 6.5 hours. Afterward, the reaction mixture was cooled to 70° C. and was then poured into 217 parts of ethanol, followed by filtration, ethanol washing, water washing and drying. The resultant crude product was then subjected to recrystallization from pyridine, thereby obtaining 14.2 parts of desired 1-(p-chloroanilido)-4,5,8-tris(p-methylanilido)anthraquinone (yield=70%) in high purity. By the use of a high-speed liquid chromatography (made by Shimadzu Seisakusho Ltd., SHIM-PACK CLC-ODS column, acetonitrile development, detection at 254 nm), it was confirmed that the purity of the product was 99.5%. In addition, the transmittance at 860 nm of the product in chloroform was 99% (product/chloroform=4 mg/100 ml).
# The same procedure as in Example 1 or 3 was repeated to synthesize the compounds shown in Table 1, and yield, purity and transmittance at 860 nm of each product were then measured. The respective substituents A, B, C and D in the table correspond to those of formula (I).
# *The transmittance was measured at 860 nm in chloroform.
row,transmittance at 860 nm of the product in chloroform [%],Structure (SMILES)
1,99.2,"CCCCc1ccc(Nc2ccc(Nc3ccc(Cl)cc3)c3c2C(=O)c2c(Nc4ccc(CCCC)cc4)ccc(Nc4ccc(CCCC)cc4)c2C3=O)cc1 [Example 2, 1-(p-chloroanilido)-4,5,8-tris(p-n-butylanilido)anthraquinone]"
2,99,"Cc1ccc(Nc2ccc(Nc3ccc(C)cc3)c3c2C(=O)c2c(Nc4ccc(C)cc4)ccc(Nc4ccc(Cl)cc4)c2C3=O)cc1 [Example 1, 1-(p-chloroanilido)-4,5,8-tris(p-methylanilido)anthraquinone]"
3,99,"Cc1ccc(Nc2ccc(Nc3ccc(C)cc3)c3c2C(=O)c2c(Nc4ccc(C)cc4)ccc(Nc4ccc(C)cc4)c2C3=O)cc1 [Comparative Example 1, 1,4,5,8-tetrakis(p-methylanilido)anthraquinone, reference compound]"
4,99.6,"Cc1ccc(Nc2ccc(Nc3ccc(C)cc3)c3c2C(=O)c2c(Nc4ccc(Cl)cc4)ccc(Nc4ccc(Cl)cc4)c2C3=O)cc1 [Example 3, 1,4-bis(p-chloroanilido)-5,8-bis(p-methylanilido)anthraquinone]"

# Same assay, conditions: measured at 860 nm in chloroform (Table 1)
row,Transmittance* [%],Structure (SMILES)
1,98.8,O=C1c2c(Nc3ccccc3)ccc(Nc3ccccc3)c2C(=O)c2c(Nc3ccc(Cl)cc3)ccc(Nc3ccccc3)c21 [Example 4]
2,100,O=C1c2c(Nc3ccc(Cl)cc3)ccc(Nc3ccc(Cl)cc3)c2C(=O)c2c(Nc3ccc(Cl)cc3)ccc(Nc3ccc(Cl)cc3)c21 [Example 6]
3,99.2,Cc1ccc(Nc2ccc(Nc3ccc(C)cc3)c3c2C(=O)c2c(Nc4ccc(C)cc4)ccc(Nc4ccc(F)cc4)c2C3=O)cc1 [Example 10]
4,99.2,O=C1c2c(Nc3ccc(Cl)cc3)ccc(Nc3ccc(C4CCCCC4)cc3)c2C(=O)c2c(Nc3ccc(C4CCCCC4)cc3)ccc(Nc3ccc(C4CCCCC4)cc3)c21 [Example 7]
5,99.6,COc1ccc(Nc2ccc(Nc3ccc(OC)cc3)c3c2C(=O)c2c(Nc4ccc(OC)cc4)ccc(Nc4cccc(F)c4)c2C3=O)cc1 [Example 12]
6,98.5,O=C1c2c(Nc3ccc(O)cc3)ccc(Nc3ccc(O)cc3)c2C(=O)c2c(Nc3ccc(Cl)cc3)ccc(Nc3ccc(Cl)cc3)c21 [Example 8]
7,99.5,Cc1ccc(Nc2ccc(Nc3ccc(Cl)cc3)c3c2C(=O)c2c(Nc4ccc(C5CCCCC5)cc4)ccc(Nc4ccc(C)cc4)c2C3=O)cc1 [Example 9]
8,98.9,COc1ccc(Nc2ccc(Nc3ccc(Cl)cc3)c3c2C(=O)c2c(Nc4ccc(OC)cc4)ccc(Nc4ccc(OC)cc4)c2C3=O)cc1 [Example 5]
9,98.2,Cc1ccc(Nc2ccc(Nc3ccc(C)cc3)c3c2C(=O)c2c(Nc4ccc(C)cc4)ccc(Nc4cccc(Br)c4)c2C3=O)cc1 [Example 11]
10,99.1,Cc1ccc(Nc2ccc(Nc3ccc(C4CCCCC4)cc3)c3c2C(=O)c2c(Nc4ccc(Br)cc4)ccc(Nc4ccc(C5CCCCC5)cc4)c2C3=O)cc1 [Example 13]
